Assay results reported in patent US20250368649A1, “TETRAHYDROPYRIDOPYRIMIDINE PAN-KRAS INHIBITORS” (Mirati Therapeutics, Inc., priority 2022, published 2025).

Key:
[1] = system: H727 cells; experiment: Inhibition of KRas-mediated phosphorylation of ERK (Cisbio HTRF pERK), H727 cells; format: cell-based; conditions: Homo sapiens; for IC50: NCI-H727, 3 h, 3 hr compound incubation; for inhibition at 0.1 µM: NCI-H727, single point at 100 nM, 3 hrs compound incubation
[2] = molecular target: KRas G12C (Homo sapiens, UniProt P01116, G12C); format: binding; conditions: TR-FRET displacement, read-out: Binding to KRas (IC50 nM) G12C
[3] = system: H358 cells; experiment: Inhibition of KRas-mediated phosphorylation of ERK (Cisbio HTRF pERK), H358 cells; format: cell-based; conditions: Homo sapiens; for IC50: NCI-H358, 3 h, 3 hr compound incubation; for inhibition at 0.1 µM: NCI-H358, single point at 100 nM, 3 hrs compound incubation
[4] = molecular target: KRas G12V (Homo sapiens, UniProt P01116, G12V); experiment: biochemical; conditions: Binding to KRas (IC50 nM) G12V, TR-FRET displacement, KRas G12V
[5] = molecular target: KRas G12D (Homo sapiens, UniProt P01116, G12D); experiment: biochemical; conditions: Binding to KRas (IC50 nM) G12D, TR-FRET displacement, KRas G12D
[6] = system: HCT116 cells; experiment: Inhibition of KRas-mediated phosphorylation of ERK (Cisbio HTRF pERK), HCT116 cells; format: cell-based; conditions: Homo sapiens; for IC50: HCT-116, 3 h, 3 hr compound incubation; for inhibition at 0.1 µM: HCT-116, single point at 100 nM, 3 hrs compound incubation
[7] = molecular target: KRas G12S (Homo sapiens, UniProt P01116, G12S); format: binding; conditions: TR-FRET displacement, read-out: Binding to KRas (IC50 nM) G12S
[8] = system: ASPC1 cells; experiment: Inhibition of KRas-mediated phosphorylation of ERK (Cisbio HTRF pERK), ASPC1 cells; format: cell-based; conditions: Homo sapiens, AsPC-1 cells; for IC50: ASPC1, 3 h, 3 hr compound incubation; for inhibition at 0.1 µM: ASPC1, single point at 100 nM, 3 hrs compound incubation
[9] = system: H460 cells; experiment: Inhibition of KRas-mediated phosphorylation of ERK (Cisbio HTRF pERK), H460 cells; format: cell-based; conditions: Homo sapiens; for IC50: NCI-H460, 3 h, 3 hr compound incubation; for inhibition at 0.1 µM: NCI-H460, single point at 100 nM, 3 hrs compound incubation
[10] = system: A549 cells; experiment: Inhibition of KRas-mediated phosphorylation of ERK (Cisbio HTRF pERK), A549 cells; format: cell-based; conditions: Homo sapiens; for IC50: A549, 3 h, 3 hr compound incubation; for inhibition at 0.1 µM: single point at 100 nM, 3 hrs compound incubation
[11] = molecular target: KRas WT (Homo sapiens, UniProt P01116); experiment: KRas binding assay (TR-FRET displacement), KRas WT; conditions: TR-FRET displacement
[12] = molecular target: KRas G12R (Homo sapiens, UniProt P01116, G12R); experiment: biochemical; conditions: Binding to KRas (IC50 nM) G12R, TR-FRET displacement, KRas G12R
[13] = molecular target: KRas Q61H (Homo sapiens, UniProt P01116, Q61H); experiment: KRas binding assay (TR-FRET displacement), KRas Q61H; conditions: TR-FRET displacement
[14] = molecular target: KRas G12A (Homo sapiens, UniProt P01116, G12A); format: binding; conditions: TR-FRET displacement, read-out: Binding to KRas (IC50 nM) G12A
[15] = molecular target: KRas G13D (Homo sapiens, UniProt P01116, G13D); format: binding; conditions: TR-FRET displacement, read-out: Binding to KRas (IC50 nM) G13D
KRas G13D, sequence (P01116 1-169 isoform P01116-2 G13D): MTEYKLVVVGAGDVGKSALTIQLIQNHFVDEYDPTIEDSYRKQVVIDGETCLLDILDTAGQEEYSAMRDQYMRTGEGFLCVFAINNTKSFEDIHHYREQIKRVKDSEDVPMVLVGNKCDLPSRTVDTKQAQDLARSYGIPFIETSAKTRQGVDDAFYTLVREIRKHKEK

KRas G12D, sequence (P01116 1-169 isoform P01116-2 G12D): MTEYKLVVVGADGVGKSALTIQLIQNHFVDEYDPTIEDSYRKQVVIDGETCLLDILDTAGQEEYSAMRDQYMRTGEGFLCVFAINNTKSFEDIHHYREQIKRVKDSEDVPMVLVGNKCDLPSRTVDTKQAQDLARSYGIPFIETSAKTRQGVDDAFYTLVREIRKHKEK
KRas G12C, sequence (P01116 1-169 isoform P01116-2 G12C): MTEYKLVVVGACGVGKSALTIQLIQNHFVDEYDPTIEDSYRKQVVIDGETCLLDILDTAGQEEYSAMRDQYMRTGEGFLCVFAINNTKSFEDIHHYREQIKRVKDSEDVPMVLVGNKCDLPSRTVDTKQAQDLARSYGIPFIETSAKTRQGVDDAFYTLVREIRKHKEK
KRas G12A, sequence (P01116 1-169 isoform P01116-2 G12A): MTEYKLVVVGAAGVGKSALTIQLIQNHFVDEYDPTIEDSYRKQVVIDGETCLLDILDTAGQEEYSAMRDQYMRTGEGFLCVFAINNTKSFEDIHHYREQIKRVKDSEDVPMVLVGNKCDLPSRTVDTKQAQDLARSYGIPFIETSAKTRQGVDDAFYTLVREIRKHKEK
KRas Q61H, sequence (P01116 1-169 isoform P01116-2 Q61H): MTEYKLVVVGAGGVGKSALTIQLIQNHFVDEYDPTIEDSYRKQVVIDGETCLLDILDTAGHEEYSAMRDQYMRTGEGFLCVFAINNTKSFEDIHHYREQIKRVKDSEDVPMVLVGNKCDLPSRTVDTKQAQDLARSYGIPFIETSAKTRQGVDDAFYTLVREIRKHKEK
KRas G12R, sequence (P01116 1-169 isoform P01116-2 G12R): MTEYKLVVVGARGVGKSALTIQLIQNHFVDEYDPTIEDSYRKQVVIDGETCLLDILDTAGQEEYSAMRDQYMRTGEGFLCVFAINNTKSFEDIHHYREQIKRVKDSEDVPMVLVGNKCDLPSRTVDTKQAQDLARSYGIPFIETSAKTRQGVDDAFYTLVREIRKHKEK
KRas G12S, sequence (P01116 1-169 isoform P01116-2 G12S): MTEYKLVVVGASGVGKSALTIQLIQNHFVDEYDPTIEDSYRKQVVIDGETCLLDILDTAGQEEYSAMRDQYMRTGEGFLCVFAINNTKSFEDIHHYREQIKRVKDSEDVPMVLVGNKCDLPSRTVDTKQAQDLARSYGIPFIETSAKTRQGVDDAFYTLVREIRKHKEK
KRas G12V, sequence (P01116 1-169 isoform P01116-2 G12V): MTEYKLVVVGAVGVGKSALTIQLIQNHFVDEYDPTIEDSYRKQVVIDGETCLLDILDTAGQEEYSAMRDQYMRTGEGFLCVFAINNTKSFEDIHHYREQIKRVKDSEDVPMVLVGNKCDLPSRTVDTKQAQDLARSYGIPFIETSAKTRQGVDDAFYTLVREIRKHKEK
KRas WT, sequence (P01116 1-169 isoform P01116-2): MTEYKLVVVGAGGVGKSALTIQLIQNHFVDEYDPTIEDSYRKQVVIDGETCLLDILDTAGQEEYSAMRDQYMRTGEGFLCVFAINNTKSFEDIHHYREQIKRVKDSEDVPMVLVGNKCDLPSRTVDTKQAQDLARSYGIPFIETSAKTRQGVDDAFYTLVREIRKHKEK

Row | IC50 [1] | IC50 [2] | IC50 [3] | IC50 [4] | IC50 [5] | IC50 [7] | IC50 [8] | IC50 [10] | IC50 [11] | IC50 ([1]; Cisbio pERK HTRF) | IC50 [12] | IC50 ([8]; Cisbio pERK HTRF) | IC50 [13] | IC50 [14] | SMILES | inhibition at 0.1 µM [1] | inhibition at 0.1 µM [3] | inhibition at 0.1 µM [6] | inhibition at 0.1 µM [8] | inhibition at 0.1 µM [9] | inhibition at 0.1 µM [10] | also measured
1 | 525 nM | 4 nM | 189 nM | 4 nM | 5 nM | 5 nM | 247 nM | 359 nM | 5 nM |  |  |  |  |  | C[C@@H]1C[C@@H]1c1c(Cl)cc(O)cc1N1CCc2c(nc(OC[C@@]34CCCN3C[C@H](F)C4)nc2N2CCC[C@@](C)(O)C2)C1 (stereo in doubt) [Example 655, (R)-1-(7-(3-chloro-5-hydroxy-2-(cis-2-methylcyclopropyl)phenyl)-2-(((2R,7aS)-2-fluorotetrahydro-1H-pyrrolizin-7a(5H)-yl)methoxy)-5,6,7,8-tetrahydropyrido[3,4-d]pyrimidin-4-yl)-3-methylpiperidin-3-ol] |  |  |  |  |  |  | IC50 [6]: 926 nM; IC50 [9]: 237 nM
2 |  |  |  | 6 nM | 44 nM |  |  |  |  | > 10000 nM | 3 nM | > 10000 nM |  |  | CCc1c(F)ccc2cc(O)cc(N3CCc4c(nc(OCC5(CN(C)C)CC5)nc4N4CCOC(c5n[nH]c(CO)n5)C4)C3)c12 (centres unmarked) [Example 602, 4-(2-((1-((dimethylamino)methyl)cyclopropyl)methoxy)-4-(2-(5-(hydroxymethyl)-1H-1,2,4-triazol-3-yl)morpholino)-5,8-dihydropyrido[3,4-d]pyrimidin-7(6H)-yl)-5-ethyl-6-fluoronaphthalen-2-ol] |  |  |  |  |  |  | IC50 ([3]; Cisbio pERK HTRF): 907 nM; IC50 ([6]; Cisbio pERK HTRF): > 10000 nM; IC50 ([9]; Cisbio pERK HTRF): 7580 nM; IC50 ([10]; Cisbio pERK HTRF): > 10000 nM
3 | 3710 nM |  | 1100 nM | 29 nM | 124 nM |  | 6520 nM | 3100 nM |  |  | 34 nM |  |  |  | CCc1c(F)ccc2cc(O)cc(N3CCc4c(nc(OC[C@@]56CCCN5C[C@H](F)C6)nc4N4CCCN(CC(F)(F)F)CC4)C3)c12 [Example 649, 5-ethyl-6-fluoro-4-(2-(((2R,7aS)-2-fluorotetrahydro-1H-pyrrolizin-7a(5H)-yl)methoxy)-4-(4-(2,2,2-trifluoroethyl)-1,4-diazepan-1-yl)-5,8-dihydropyrido[3,4-d]pyrimidin-7(6H)-yl)naphthalen-2-ol] |  |  |  |  |  |  | IC50 [6]: > 10000 nM; IC50 [9]: 2440 nM
4 | 4720 nM | 72 nM | 1250 nM | 31 nM | 17 nM | 83 nM | 4290 nM | 8710 nM | 95 nM |  |  |  |  |  | CN(C)C(=O)c1cc2n(n1)CCCN(c1nc(OC[C@@]34CCCN3C[C@H](F)C4)nc3c1CCN(c1ccc(F)c4sc(N)c(C#N)c14)C3)C2 [Example 709, 5-(7-(2-amino-3-cyano-7-fluorobenzo[b]thiophen-4-yl)-2-(((2R,7aS)-2-fluorotetrahydro-1H-pyrrolizin-7a(5H)-yl)methoxy)-5,6,7,8-tetrahydropyrido[3,4-d]pyrimidin-4-yl)-N,N-dimethyl-5,6,7,8-tetrahydro-4H-pyrazolo[1,5-a][1,4]diazepine-2-carboxamide] |  |  |  |  |  |  | 

Further lines, the compound ahead of its results:

Row | SMILES | IC50 [1] | IC50 [2] | IC50 [3] | IC50 [4] | IC50 [5] | IC50 [7] | IC50 [8] | IC50 [10] | IC50 [11] | IC50 ([1]; Cisbio pERK HTRF) | IC50 [12] | IC50 ([8]; Cisbio pERK HTRF) | IC50 [13] | IC50 [14] | inhibition at 0.1 µM [1] | inhibition at 0.1 µM [3] | inhibition at 0.1 µM [6] | inhibition at 0.1 µM [8] | inhibition at 0.1 µM [9] | inhibition at 0.1 µM [10] | also measured
5 | CCc1c(F)ccc2cc(O)cc(N3CCc4c(nc(OC[C@@]56CCCN5C[C@H](F)C6)nc4N4CCCCC(COCC(N)=O)C4)C3)c12 (stereo partly drawn) [Example 492, 2-((1-(7-(8-ethyl-7-fluoro-3-hydroxynaphthalen-1-yl)-2-(((2R,7aS)-2-fluorohexahydro-1H-pyrrolizin-7a-yl)methoxy)-5,6,7,8-tetrahydropyrido[3,4-d]pyrimidin-4-yl)azepan-3-yl)methoxy)acetamide] |  |  |  | 7 nM | 11 nM |  |  |  |  | 3940 nM | 6 nM | 9040 nM |  |  | 0% | -3% | 23% | -11% | 6% | -24% | 
6 | CCc1c(F)ccc2cc(O)cc(N3CCc4c(nc(OC[C@@]56CCCN5C[C@H](F)C6)nc4N4CCCn5nc(CS(=O)(=O)N(C)C)cc5C4)C3)c12 [Example 494, 1-(5-(7-(8-ethyl-7-fluoro-3-hydroxynaphthalen-1-yl)-2-(((2R,7aS)-2-fluorohexahydro-1H-pyrrolizin-7a-yl)methoxy)-5,6,7,8-tetrahydropyrido[3,4-d]pyrimidin-4-yl)-5,6,7,8-tetrahydro-4H-pyrazolo[1,5-a][1,4]diazepin-2-yl)-N,N-dimethylmethanesulfonamide] |  |  |  | 26 nM | 12 nM |  |  |  |  | 2580 nM | 24 nM | 749 nM |  |  | 13% | 8% | 4% | -4% | 4% | 14% | 
7 | CCc1c(F)ccc2cc(O)cc(N3CCc4c(nc(OC[C@@]56CCCN5C[C@H](F)C6)nc4N4CCCn5nc(C(=O)N6CC7CC6CN7)cc5C4)C3)c12 (stereo partly drawn) [Example 502, 2,5-diazabicyclo[2.2.1]heptan-2-yl(5-(7-(8-ethyl-7-fluoro-3-hydroxynaphthalen-1-yl)-2-(((2R,7aS)-2-fluorohexahydro-1H-pyrrolizin-7a-yl)methoxy)-5,6,7,8-tetrahydropyrido[3,4-d]pyrimidin-4-yl)-5,6,7,8-tetrahydro-4H-pyrazolo[1,5-a][1,4]diazepin-2-yl)methanone] |  |  |  | < 2 nM | < 2 nM |  |  |  |  | 1310 nM | 3 nM | 124 nM |  |  | 7% | 5% | 8% | 22% | 7% | 11% | 
8 | CCc1cccc2cccc(N3CCc4c(nc(OCC5(CN(C)C)CC5)nc4N4CCCC(c5nnc[nH]5)C4)C3)c12 (centres unmarked) [Example 514, 1-(1-(((4-(3-(4H-1,2,4-triazol-3-yl)piperidin-1-yl)-7-(8-ethylnaphthalen-1-yl)-5,6,7,8-tetrahydropyrido[3,4-d]pyrimidin-2-yl)oxy)methyl)cyclopropyl)-N,N-dimethylmethanamine] |  | 286 nM |  | 1570 nM | 3220 nM | 318 nM |  |  | 252 nM |  |  |  | 389 nM | 296 nM |  |  |  |  |  |  | IC50 [15]: 372 nM
9 | CCc1cccc2cccc(N3CCc4c(nc(OCC5(CN(C)C)CC5)nc4N4CCCOC(CCO)C4)C3)c12 (centres unmarked) [Example 515, 2-(4-(2-((1-((dimethylamino)methyl)cyclopropyl)methoxy)-7-(8-ethylnaphthalen-1-yl)-5,6,7,8-tetrahydropyrido[3,4-d]pyrimidin-4-yl)-1,4-oxazepan-2-yl)ethan-1-ol] |  | 373 nM |  | 346 nM | 298 nM | 725 nM |  |  | 622 nM |  |  |  | 877 nM | 656 nM |  |  |  |  |  |  | IC50 [15]: 988 nM
10 | CCc1cccc2cccc(N3CCc4c(nc(OCC5(CN(C)C)CC5)nc4N4CC(C)CC(CO)C4)C3)c12 (centres unmarked) [Example 516, (1-(2-((1-((dimethylamino)methyl)cyclopropyl)methoxy)-7-(8-ethylnaphthalen-1-yl)-5,6,7,8-tetrahydropyrido[3,4-d]pyrimidin-4-yl)-5-methylpiperidin-3-yl)methanol] |  | 1030 nM |  | 1150 nM | 1230 nM | 1560 nM |  |  | 2650 nM |  |  |  | 2530 nM | 1490 nM |  |  |  |  |  |  | IC50 [15]: 3180 nM
